pIC50: −log10 of the molar value. Like-named read-outs stand apart in the source and are kept apart here.
Target: Escherichia coli DNA gyrase A/B tetramer (Escherichia coli (strain K12), UniProt P0AES4+P0AES6)
Test: DNA gyrase supercoiling activity fluorescence polarisation assay
Assay type: biochemical
Procedure, shortened: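 Supercoiling reactions quenched with 40 nM 5′-BODIPY-FL triplex-forming oligonucleotide probe in pH 3.5 NaCl/sodium acetate buffer; after 60 min, fluorescence anisotropy read (ex 485/em 535 nm). IC50 by nonlinear regression, normalised to 0.8% DMSO (100% activity) and 5 μM ciprofloxacin (0% activity).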

[1] = 5 nM enzyme, relaxed plasmid, 0.3 mM ATP, ambient temperature, read-out: E. coli DNA gyrase supercoiling IC50

| Compound | pIC50 [1] | pIC50 |
| --- | --- | --- |
| C[C@@H]1CN2c3c(cc4c(NCC5CC5)noc4c3F)CC3(C(=O)NC(=O)NC3=O)[C@H]2[C@H](C)O1 (relative stereo) [Example 17, (2R,4S,4aS)-rel-8-[(cyclopropylmethyl)amino]-11-fluoro-2,4-dimethyl-1,2,4,4a-tetrahydro-2′H,6H-spiro[1,4-oxazino[4,3-a][1,2]oxazolo[4,5-g]quinoline-5,5′-pyrimidine]-2′,4′,6′(1′H,3′H)-trione] | 5.85 |  |
| C[C@@H]1CN2c3c(cc4c(-c5cncs5)noc4c3F)CC3(C(=O)NC(=O)NC3=O)[C@H]2[C@H](C)O1 (relative stereo) [Example 98, (2R,4S,4aS)-rel-11-fluoro-2,4-dimethyl-8-(thiazol-5-yl)-2,4,4a,6-tetrahydro-1H,1′H-spiro[isoxazolo[4,5-g][1,4]oxazino[4,3-a]quinoline-5,5′-pyrimidine]-2′,4′,6′(3′H)-trione] | 6.40 |  |
| Cc1noc2c(F)c3c(cc12)CC1(C(=O)NC(=O)NC1=O)[C@H]1[C@H](C)O[C@H](C)CN31 (relative stereo) [Example 2, (2R,4S,4aS)-rel-11-fluoro-2,4,8-trimethyl-1,2,4,4a-tetrahydro-2′H,6H-spiro[isoxazolo[4,5-g][1,4]oxazino[4,3-a]quinoline-5,5′-pyrimidine]-2′,4′,6′(1′H,3′H)-trione] |  | 6.40 |
| C[C@@H]1CN2c3c(cc4c(NCc5ccccc5)noc4c3F)CC3(C(=O)NC(=O)NC3=O)[C@H]2[C@H](C)O1 (racemic) [Example 9, (2R,4S,4 aS)-rel-8-(benzylamino)-11-fluoro-2,4-dimethyl-1,2,4,4a-tetrahydro-2′H,6H-spiro[1,4-oxazino[4,3-a][1,2]oxazolo[4,5-g]quinoline-5,5′-pyrimidine]-2′,4′,6′(1′H,3′H)-trione] | 5.77 |  |
| C[C@@H]1CN2c3c(cc4c(C(=O)NCc5ccn(C)n5)noc4c3F)CC3(C(=O)NC(=O)NC3=O)[C@H]2[C@H](C)O1 (relative stereo) [Example 161, (2R,4S,4aS)-rel-11-fluoro-2,4-dimethyl-N-((1-methyl-1H-pyrazol-3-yl)methyl)-2′,4′,6′-trioxo-2,2′,3′,4,4a,4′,6,6′-octahydro-1H,1′H-spiro[isoxazolo[4,5-g][1,4]oxazino[4,3-a]quinoline-5,5′-pyrimidine]-8-carboxamide] | 5.89 |  |
| C[C@H]1CN2c3c(cc4c(-c5cccnn5)noc4c3F)CC3(C(=O)NC(=O)NC3=O)[C@@H]2[C@@H](C)O1 (relative stereo) [Example 73, (2R,4S,4aS)-rel-11-fluoro-2,4-dimethyl-8-(pyridazin-3-yl)-1,2,4,4a-tetrahydro-2′H,6H-spiro[1,4-oxazino[4,3-a][1,2]oxazolo[4,5-g]quinoline-5,5′-pyrimidine]-2′,4′,6′(1′H,3′H)-trione] | 6.30 |  |
| Cc1cc(C(F)F)nn1-c1noc2c(F)c3c(cc12)CC1(C(=O)NC(=O)NC1=O)[C@H]1[C@H](C)O[C@H](C)CN31 (relative stereo) [Example 30, (2R,4S,4aS)-rel-8-[3-(difluoromethyl)-5-methyl-1H-pyrazol-1-yl]-11-fluoro-2,4-dimethyl-1,2,4,4a-tetrahydro-2′H,6H-spiro[isoxazolo[4,5-g][1,4]oxazino[4,3-a]quinoline-5,5′-pyrimidine]-2′,4′,6′(1′H,3′H)-trione] | 5.27 |  |
| C[C@@H]1CN2c3c(cc4c(N)noc4c3F)CC3(C(=O)NC(=O)NC3=O)[C@H]2[C@H](C)O1 (relative stereo) [Example 1, (2R,4S,4aS)-rel-8-amino-11-fluoro-2,4-dimethyl-1,2,4,4a-tetrahydro-2′H,6H-spiro[isoxazolo[4,5-g][1,4]oxazino[4,3-a]quinoline-5,5′-pyrimidine]-2′,4′,6′(1′H,3′H)-trione] | 6.30 |  |
| C[C@@H]1CN2c3c(cc4c(-c5ccccc5F)noc4c3F)CC3(C(=O)NC(=O)NC3=O)[C@H]2[C@H](C)O1 (relative stereo) [Example 99, (2R,4S,4aS)-rel-11-fluoro-8-(2-fluorophenyl)-2,4-dimethyl-2,4,4a,6-tetrahydro-1H,1′H-spiro[isoxazolo[4,5-g][1,4]oxazino[4,3-a]quinoline-5,5′-pyrimidine]-2′,4′,6′(3′H)-trione] | 6.40 |  |
| C[C@@H]1CN2c3c(cc4c(-c5ncnn5C)noc4c3F)CC3(C(=O)NC(=O)NC3=O)[C@H]2[C@H](C)O1 [Example 178, (2R,4S,4aS)-11-fluoro-2,4-dimethyl-8-(1-methyl-1H-1,2,4-triazol-5-yl)-2,4,4a,6-tetrahydro-1H,1′H-spiro[isoxazolo[4,5-g][1,4]oxazino[4,3-a]quinoline-5,5′-pyrimidine]-2′,4′,6′(3′H)-trione] | 5.89 |  |
| C[C@@H]1CN2c3c(cc4c(C(=O)N5CCC(F)(F)CC5)noc4c3F)CC3(C(=O)NC(=O)NC3=O)[C@H]2[C@H](C)O1 (relative stereo) [Example 157, (2R,4S,4aS)-rel-8-(4,4-difluoropiperidine-1-carbonyl)-11-fluoro-2,4-dimethyl-2,4,4a,6-tetrahydro-1H,1′H-spiro[isoxazolo[4,5-g][1,4]oxazino[4,3-a]quinoline-5,5′-pyrimidine]-2′,4′,6′(3′H)-trione] | 5.19 |  |
| C[C@@H]1CN2c3c(nc4c(C(=O)NC(C)(C)C)noc4c3Cl)CC3(C(=O)NC(=O)NC3=O)[C@H]2[C@H](C)O1 (relative stereo) [Example 128, (2R,4S,4aS)-rel-N-tert-butyl-11-chloro-2,4-dimethyl-2′,4′,6′-trioxo-2,2′,3′,4,4a,4′,6,6′-octahydro-1H,1′H-spiro[isoxazolo[4,5-g][1,4]oxazino[4,3-a][1,5]naphthyridine-5,5′-pyrimidine]-8-carboxamide] | 4.72 |  |
| C[C@@H]1CN2c3c(cc4c(-c5cncc(Cl)n5)noc4c3F)CC3(C(=O)NC(=O)NC3=O)[C@H]2[C@H](C)O1 (relative stereo) [Example 79, (2R,4S,4aS)-rel-8-(6-chloropyrazin-2-yl)-11-fluoro-2,4-dimethyl-2,4,4a,6-tetrahydro-1H,1′H-spiro[isoxazolo[4,5-g][1,4]oxazino[4,3-a]quinoline-5,5′-pyrimidine]-2′,4′,6′(3′H)-trione] | 6.10 |  |
| C[C@@H]1CN2c3c(cc4c(-n5nccn5)noc4c3F)CC3(C(=O)NC(=O)NC3=O)[C@H]2[C@H](C)O1 (racemic) [Example 56, (2R,4S,4 aS)-rel-11-fluoro-2,4-dimethyl-8-(2H-1,2,3-triazol-2-yl)-1,2,4,4a-tetrahydro-2′H,6H-spiro[1,4-oxazino[4,3-a][1,2]oxazolo[4,5-g]quinoline-5,5′-pyrimidine]-2′,4′,6′(1′H,3′H)-trione] | 6.15 |  |
| Cc1nc(-c2noc3c(F)c4c(cc23)CC2(C(=O)NC(=O)NC2=O)[C@H]2[C@H](C)O[C@H](C)CN42)co1 (relative stereo) [Example 65, (2R,4S,4aS)-rel-11-fluoro-2,4-dimethyl-8-(2-methyl-1,3-oxazol-4-yl)-1,2,4,4a-tetrahydro-2′H,6H-spiro[1,4-oxazino[4,3-a][1,2]oxazolo[4,5-g]quinoline-5,5′-pyrimidine]-2′,4′,6′(1′H,3′H)-trione] | 5.96 |  |
| C[C@@H]1CN2c3c(cc4c(N5CCCC5)noc4c3F)CC3(C(=O)NC(=O)NC3=O)[C@H]2[C@H](C)O1 (relative stereo) [Example 25, (2R,4S,4aS)-rel-11-fluoro-2,4-dimethyl-8-(pyrrolidin-1-yl)-1,2,4,4a-tetrahydro-2′H,6H-spiro[isoxazolo[4,5-g][1,4]oxazino[4,3-a]quinoline-5,5′-pyrimidine]-2′,4′,6′(1′H,3′H)-trione] | 5.82 |  |
| C[C@@H]1CN2c3c(cc4c(-c5ccncc5)noc4c3F)CC3(C(=O)NC(=O)NC3=O)[C@H]2[C@H](C)O1 (relative stereo) [Example 82, (2R,4S,4aS)-rel-11-fluoro-2,4-dimethyl-8-(pyridin-4-yl)-2,4,4a,6-tetrahydro-1H,1′H-spiro[isoxazolo[4,5-g][1,4]oxazino[4,3-a]quinoline-5,5′-pyrimidine]-2′,4′,6′(3′H)-trione] | 6.70 |  |
| Cc1ccc(-c2noc3c(F)c4c(cc23)CC2(C(=O)NC(=O)NC2=O)[C@H]2[C@H](C)O[C@H](C)CN42)cn1 (relative stereo) [Example 91, (2R,4S,4aS)-rel-11-fluoro-2,4-dimethyl-8-(6-methylpyridin-3-yl)-2,4,4a,6-tetrahydro-1H,1′H-spiro[isoxazolo[4,5-g][1,4]oxazino[4,3-a]quinoline-5,5′-pyrimidine]-2′,4′,6′(3′H)-trione] | 5.72 |  |
| Cc1nnsc1-c1noc2c(F)c3c(cc12)CC1(C(=O)NC(=O)NC1=O)[C@H]1[C@H](C)O[C@H](C)CN31 (racemic) [Example 72, (2R,4S,4aS)-rel-11-fluoro-2,4-dimethyl-8-(4-methyl-1,2,3-thiadiazol-5-yl)-1,2,4,4a-tetrahydro-2′H,6H-spiro[1,4-oxazino[4,3-a][1,2]oxazolo[4,5-g]quinoline-5,5′-pyrimidine]-2′,4′,6′(1′H,3′H)-trione] |  | 6.05 |
| C[C@@H]1CN2c3c(nc4c(C(=O)NCC(C)(C)C)noc4c3Cl)CC3(C(=O)NC(=O)NC3=O)[C@H]2[C@H](C)O1 (relative stereo) [Example 129, (2R,4S,4aS)-rel-11-Chloro-2,4-dimethyl-N-neopentyl-2′,4′,6′-trioxo-2,2′,3′,4,4a,4′,6,6′-octahydro-1H,1′H-spiro[isoxazolo[4,5-g][1,4]oxazino[4,3-a][1,5]naphthyridine-5,5′-pyrimidine]-8-carboxamide] | 4.51 |  |
| C[C@@H]1CN2c3c(cc4c(C(=O)NCC(F)F)noc4c3F)CC3(C(=O)NC(=O)NC3=O)[C@H]2[C@H](C)O1 (racemic) [Example 94, (2R,4 S,4 aS)-rel-N-(2,2-difluoroethyl)-11-fluoro-2,4-dimethyl-2′,4′,6′-trioxo-2,2′,3′,4,4a,4′,6,6′-octahydro-1H,1′H-spiro[isoxazolo[4,5-g][1,4]oxazino[4,3-a]quinoline-5,5′-pyrimidine]-8-carboxamide] | 5.80 |  |

From patent publication US9040528B2, “Chemical compounds 542” (AstraZeneca AB, priority 2008, dated 2015)
